Several values for one entry are separate records, joined by “and”; a condition that tells them apart may be missing. Equal entries are not always repeated. Where two headings read alike, the source gives them in different places. One block for each compound: values may come before it.
Tests used:
[1] = tested on: mitochondrial respiration; details: Groß et al., Immunity 2016; cited from earlier work
TLR7/TLR8 = details: background statement; cited from earlier work
BMDCs = assay: LDH release (lytic cell death, pyroptosis) from LPS-primed BMDCs; assay type: cell-based, mouse; details: for Average (% positive control): LDH release; for cytotoxicity at 25 µM / cytotoxicity at 50 µM / cytotoxicity at 100 µM: Mus musculus, BMDC
In short: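 LDH released into medium, detected colorimetrically, served as the pyroptosis read-out in triplicate. LPS-primed (50 ng ml^−1, 3 h) murine bone marrow-derived dendritic cells received test compounds, typically 50 μM, or nigericin (5 μM), R837 or CL097 (100 μM) for 3 hours.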

NLRP3 inflammasome [2] = target: T1, NLRP3 inflammasome (Mus musculus, UniProt Q8R4B8); assay: IL-1β release from LPS-primed BMDCs (ELISA) as readout of NLRP3 inflammasome activation; assay type: cell-based; details: for Average (% positive control): IL-1β release; for IL-1β: single replicates
T1 construct: endogenous in cells; host or cells: primary mouse bone marrow-derived dendritic cells (BMDCs), LPS-primed
T1 sequence (Q8R4B8 whole entry): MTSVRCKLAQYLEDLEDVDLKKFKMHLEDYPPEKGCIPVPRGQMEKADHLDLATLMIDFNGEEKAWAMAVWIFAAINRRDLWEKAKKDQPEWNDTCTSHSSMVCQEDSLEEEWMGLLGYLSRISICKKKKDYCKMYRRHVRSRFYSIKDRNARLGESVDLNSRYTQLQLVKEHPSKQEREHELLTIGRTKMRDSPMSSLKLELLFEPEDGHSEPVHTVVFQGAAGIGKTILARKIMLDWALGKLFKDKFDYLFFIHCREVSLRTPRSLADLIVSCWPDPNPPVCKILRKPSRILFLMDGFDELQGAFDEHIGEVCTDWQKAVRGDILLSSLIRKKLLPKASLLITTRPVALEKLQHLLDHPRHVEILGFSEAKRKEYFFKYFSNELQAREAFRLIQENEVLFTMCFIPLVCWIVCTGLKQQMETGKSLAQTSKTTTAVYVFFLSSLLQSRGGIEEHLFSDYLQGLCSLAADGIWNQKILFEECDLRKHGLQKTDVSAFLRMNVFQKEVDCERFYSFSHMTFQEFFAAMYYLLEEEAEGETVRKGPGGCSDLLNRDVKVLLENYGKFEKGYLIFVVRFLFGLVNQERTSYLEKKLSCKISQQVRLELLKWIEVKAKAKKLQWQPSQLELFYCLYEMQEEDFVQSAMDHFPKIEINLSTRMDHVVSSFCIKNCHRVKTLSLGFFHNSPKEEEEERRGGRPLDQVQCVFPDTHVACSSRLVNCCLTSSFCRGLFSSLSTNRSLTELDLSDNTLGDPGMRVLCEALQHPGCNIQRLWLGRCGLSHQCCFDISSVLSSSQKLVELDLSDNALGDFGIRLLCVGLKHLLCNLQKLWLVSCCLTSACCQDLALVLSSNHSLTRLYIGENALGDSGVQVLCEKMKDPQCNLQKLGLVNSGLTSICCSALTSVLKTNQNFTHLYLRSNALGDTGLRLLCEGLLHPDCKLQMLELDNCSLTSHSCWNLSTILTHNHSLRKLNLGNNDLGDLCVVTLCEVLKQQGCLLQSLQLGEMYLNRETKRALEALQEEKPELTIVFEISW
In short: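 NLRP3 inflammasome activation was read out as IL-1β released into the supernatant, measured by ELISA. Murine BMDCs were primed with LPS (50 ng ml^−1, 3 hours), then incubated with compounds for 3 hours, with each condition run in three technical replicates. Nigericin at 5 μM acted as the positive control activator, and IL-1β release was also expressed as a percentage of that control.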

NLRP3 inflammasome [3] = target: T1, NLRP3 inflammasome; assay: Inflammasome stimulation of BMDCs after pre-incubation with inhibitors (MCC950, KCl, ebselen, cytochalasin D); assay type: cell-based; details: 50 mM extracellular KCl; FIGS. 11 and 17
Procedure: For canonical inflammasome activation BMDCs after 7-9 days of differentiation were harvested and counted with a Neubauer Chamber (Hecht Assistant) and the concentration was set to 1 Mio cells ml^−1. 100 μl cell suspension per well were seeded in 96-well plates. The cells were primed with 50 ng ml^−1 E. coli K12 ultra-pure LPS for 3 hours and subsequently treated with canonical inflammasome activators or experimental compounds for 3 hours if not indicated differently (incubation time FIG. 4D, 5, 7, 8, 11, 13-18: 3 h, FIG. 12: 4 h). Concentrations of the stimuli were as follows if not indicated differently: 5 μM nigericin, 100 μM imiquimod (also known as R837), 100 μM CL097, 100 μM R848, […] poly(dA:dT), 300 μg ml^−1 MSU. If an inhibitor was used before stimuli treatment, the inhibitor was added after 2.5 hours of priming and it was incubated for 30 minutes before inflammasome activation. […]
(§1) All inflammasome stimulations were performed in three technical replicates for each condition. Lytic cell death was determined via LDH release (see FIGS. 8, 13-16 and 18), cytokines quantified in cell-free supernatants via ELISA (see FIGS. 4D, 7-9, 11-19) and cell lysates and supernatants analyzed via immunoblotting (see FIGS. 5A and 5B) as previously described in detail (Gross, Olaf, 2012 “Measuring the inflammasome”, Methods in molecular biology, Clifton, N.J., 844, pp. 199-222. Schneider, Katharina S.; Thomas, Christina J.; Groß, Olaf, 2013, “Inflammasome activation and inhibition in primary murine bone marrow-derived cells, and assays for IL-1α, IL-1β, and caspase-1”, Methods in molecular biology, Clifton, N.J., 1040, pp. 117-135).

NLRP3 = assay: Inflammasome stimulation (IL-1β, LDH release) in BMDCs from NLRP3 knockout or ASC knockout mice; assay type: cell-based, mouse; details: IL-1β and LDH release
Procedure: For canonical inflammasome activation BMDCs after 7-9 days of differentiation were harvested and counted with a Neubauer Chamber (Hecht Assistant) and the concentration was set to 1 Mio cells ml^−1. 100 μl cell suspension per well were seeded in 96-well plates. The cells were primed with 50 ng ml^−1 E. coli K12 ultra-pure LPS for 3 hours and subsequently treated with canonical inflammasome activators or experimental compounds for 3 hours if not indicated differently (incubation time FIG. 4D, 5, 7, 8, 11, 13-18: 3 h, FIG. 12: 4 h). Concentrations of the stimuli were as follows if not indicated differently: 5 μM nigericin, 100 μM imiquimod (also known as R837), 100 μM CL097, 100 μM R848, […] poly(dA:dT), 300 μg ml^−1 MSU. If an inhibitor was used before stimuli treatment, the inhibitor was added after 2.5 hours of priming and it was incubated for 30 minutes before inflammasome activation. Inhibitors were used as follows: 3 μM MCC950, 45 mM KCl, 30 μM ebselen (2-Phenyl-1,2-benzoselenazol-3-one), 5 μM cytochalasin D (see FIGS. 8, 11, 12 and 17).
as §1

[4] = 100 μM, positive control nigericin 5 μM
[5] = section 1.2, 25 μM, positive control EN22 25 μM
[6] = section 1.2, 50 μM, positive control EN22 25 μM
[7] = section 1.2, 100 μM, positive control EN22 25 μM

SMILES: CCOCc1nc2c([nH]1)c(N)nc1ccccc12 [CL097, reference compound]
- inhibition of cellular respiration (mitochondrial electron transport chain) [1]: inhibit cellular respiration
- activation of toll-like receptor-7 (TLR7) and/or TLR8 (TLR7/TLR8): activate
- Average LDH release (% of max.) (BMDCs; 100 μM, LPS-primed BMDCs): 68.096 % of max.
- Average (% positive control) (BMDCs; [4]): 93.083 % positive control
- LDH release (% of max.) (BMDCs; single replicates, 100 μM, LPS-primed BMDCs): 56.511 % of max. and 69.145 % of max. and 62.611 % of max. and 76.051 % of max. and 68.018 % of max. and 76.242 % of max.
- Average IL-1β (NLRP3 inflammasome [2]; 100 μM, LPS-primed BMDCs): 8.570 ng/mL
- Average (% positive control) (NLRP3 inflammasome [2]; [4]): 119.560 % positive control
- IL-1β (NLRP3 inflammasome [2]; 100 μM, LPS-primed BMDCs): 7.355 ng/mL and 8.020 ng/mL and 8.660 ng/mL and 8.522 ng/mL and 9.540 ng/mL and 9.324 ng/mL

- dependence of NLRP3 inflammasome activation on potassium efflux from the cell (NLRP3 inflammasome [3]): independently of potassium efflux
- Average IL-1β (NLRP3 inflammasome [2]; section 1.2, 25 μM): 4.696 ng/mL
- Average IL-1β (NLRP3 inflammasome [2]; section 1.2, 50 μM): 5.026 ng/mL
- Average IL-1β (NLRP3 inflammasome [2]; section 1.2, 100 μM): 5.084 ng/mL
- Average (% positive control) (NLRP3 inflammasome [2]; [5]): 93.430 % positive control
- Average (% positive control) (NLRP3 inflammasome [2]; [6]): 100.007 % positive control
- Average (% positive control) (NLRP3 inflammasome [2]; [7]): 101.159 % positive control
SMILES: O=C(Nc1ccc2ncccc2c1)Nc1ccc2ncccc2c1 [EN-A, 1,3-di(quinolin-6-yl)urea]
- cytotoxicity at 25 µM (BMDCs; section 1.2, 25 μM, read-out: Average LDH release (% of max.)): 33.1%
- cytotoxicity at 50 µM (BMDCs; section 1.2, 50 μM, read-out: Average LDH release (% of max.)): 32.4%
- cytotoxicity at 100 µM (BMDCs; section 1.2, 100 μM, read-out: Average LDH release (% of max.)): 33%
- cytotoxicity at 25 µM (BMDCs; section 1.2, single replicates, 25 μM, read-out: LDH release (% of max.)): 33.7%
- cytotoxicity at 50 µM (BMDCs; section 1.2, single replicates, 50 μM, read-out: LDH release (% of max.)): 32.1%
- cytotoxicity at 100 µM (BMDCs; section 1.2, single replicates, 100 μM, read-out: LDH release (% of max.)): 34.8%
- Average (% positive control) (BMDCs; [5]): 110.581 % positive control
- Average (% positive control) (BMDCs; [6]): 108.112 % positive control
- Average (% positive control) (BMDCs; [7]): 110.157 % positive control
- IL-1β (NLRP3 inflammasome [2]; section 1.2, 25 μM): 5.256 ng/mL and 4.576 ng/mL and 4.256 ng/mL
- IL-1β (NLRP3 inflammasome [2]; section 1.2, 50 μM): 4.819 ng/mL and 5.538 ng/mL and 4.722 ng/mL
- IL-1β (NLRP3 inflammasome [2]; section 1.2, 100 μM): 5.256 ng/mL and 5.328 ng/mL and 4.669 ng/mL
- characteristics of inflammasome activation in cells isolated from NLRP3 knockout mice (NLRP3): do not occur

- Average IL-1β (NLRP3 inflammasome [2]; 100 μM, LPS-primed BMDCs): 2.376 ng/mL
- Average (% positive control) (NLRP3 inflammasome [2]; [4]): 33.144 % positive control
SMILES: CC(C)Cn1cnc2c(N)nc3ccccc3c21 [imiquimod, reference compound]
- inhibition of cellular respiration (mitochondrial electron transport chain) [1]: inhibit cellular respiration
- activation of toll-like receptor-7 (TLR7) and/or TLR8 (TLR7/TLR8): activate
- Average (% positive control) (BMDCs; [4]): 35.494 % positive control
- cytotoxicity at 100 µM (BMDCs; 100 μM, LPS-primed BMDCs, read-out: Average LDH release (% of max.)): 26%
- IL-1β (NLRP3 inflammasome [2]; 100 μM, LPS-primed BMDCs, listed as R837): 5.472 ng/mL and 4.151 ng/mL and 1.552 ng/mL and 1.212 ng/mL and 0.958 ng/mL and 0.911 ng/mL

From patent US20240277658A1, “NLRP3 ACTIVATORS FOR USE IN THE TREATMENT OF INFECTIOUS DISEASES OR CANCER BY ACTIVATING NLRP3 INFLAMMASOME” (ALBERT-LUDWIGS-UNIVERSITÄT FREIBURG, priority 2020, published 2024)
